Experimental data from PMC12131314, “Design, synthesis and cytotoxic research of a novel antitumor model based on acrylamide–PABA analogs via β-tubulin inhibition” (RSC Advances, 2025).

Assays:
Format in all cases: cell-based
[1] = tested on: MCF-7 breast cancer cell line; assay: MTT cytotoxicity assay, MCF-7 breast cancer cell line; conditions: for IC50: MCF-7 breast carcinoma cells, triplicate
Description: The MTT colorimetric technique was used to evaluate the cytotoxic activity of the newly produced acrylamide–PABA hybrids 4a–j against the MCF-7 breast cancer cell line.
(§1) S4.2.1. Cytotoxic activity evaluation
(§2) To measure the cytotoxic actvity of the synthesized acrylamide-PABA derivatives 4a-j in breast MCF-7 (ATCC Cat. No. HTB-22), liver HepG2 (ATCC Cat No. HB-8065), and normal breast MCF-10A (ATCC Cat. No. CRL 10317) cell lines, cell viability assay was assessed using MTT assay method. Cells at density of 1 x 104 were seeded in a 96-well plate at 37 °C for 24 h under 5% CO2. After incubation, the cells were treated with different concentrations of the test acrylamide-PABA hybrids 4a-j and incubated for 24 h, then 20 µl of MTT solution at 5 mg/mL was applied and incubated for 4 h at 37 °C. Dimethyl sulphoxide (DMSO) in volume of 100 µl was added to each well to dissolve the purple formazan that had formed. The color intensity of the formazan product, which represents the growth condition of the cells, is quantified by using an ELISA plate reader (EXL 800, USA) at 570 nm absorbance. The experimental conditions were carried out with at least three replicates, and the experiments were repeated at least three times. […]

[2] = tested on: HepG2 hepatocellular carcinoma cell line; assay: MTT cytotoxicity assay, HepG2 hepatocellular carcinoma cell line; conditions: Homo sapiens, HepG2 cells, triplicate
Description: as §1, §2

[3] = tested on: MCF-10A (normal breast) cell line; assay: MTT cytotoxicity assay, MCF-10A normal breast cell line; conditions: Homo sapiens, MCF-10A normal breast cells, triplicate
Description: as §1, §2

β-tubulin = β-tubulin polymerization inhibition (β-tubulin assay kit) in MCF-7 cells
Description: as §1
To measure the cytotoxic actvity of the synthesized acrylamide-PABA derivatives 4a-j in breast MCF-7 (ATCC Cat. No. HTB-22), liver HepG2 (ATCC Cat No. HB-8065), and normal breast MCF-10A (ATCC Cat. No. CRL 10317) cell lines, cell viability assay was assessed using MTT assay method. Cells at density of 1 x 104 were seeded in a 96-well plate at 37 °C for 24 h under 5% CO2. After incubation, the cells were treated with different concentrations of the test acrylamide-PABA hybrids 4a-j and incubated for 24 h, then 20 µl of MTT solution at 5 mg/mL was applied and incubated for 4 h at 37 °C. Dimethyl sulphoxide (DMSO) in volume of 100 µl was added to each well to dissolve the purple formazan that had formed. The color intensity of the formazan product, which represents the growth condition of the cells, is quantified by using an ELISA plate reader (EXL 800, USA) at 570 nm absorbance. The experimental conditions were carried out with at least three replicates, and the experiments were repeated at least three times.
S4.2.2. β-tubulin inhibition Assay […]
according to manufacturer’s instructions

MCF-7 cells [4] = assay: Annexin V-FITC/PI apoptosis assay by flow cytometry; conditions: 4j at the IC50, 48 h
Description: Understanding the biological mechanism of action of chemotherapeutic agents is an important aspect of the pharmaceutical development process.[28] […] Following cellular staining with Annexin V –FITC/propidium iodide (PI), FACS analysis was conducted. To differentiate between early and late apoptosis, both stains were used. (PI^−/Annexin V-FITC^+) represented early apoptotic cells, (PI^+/Annexin V-FITC^+) indicated late apoptotic cells, and (PI^+/Annexin V-FITC^−) represented necrotic cells. However, healthy cells were not stained (PI^−/Annexin V-FITC^−). […] This was clarified by compound 4j's modest degree of induced necrosis in contrast to its markedly elevated levels of induced early and late apoptosis. Acrylamide–PABA analog 4j induced both early apoptosis (22.07%) and late apoptosis (7.56%) in comparison with modest level of necrosis (3.19%).
S4.2.3. Apoptosis assay for compound 4j
Apoptosis in MCF-7 cells was investigated using fluorescent Annexin V-FITC/ PI detection kit (BioVision Annexin V-FITC Apoptosis Detection Kit, Catalog #: K101) by flow cytometry assay. MCF-7 cells at a density of 2 × 10^5 per well were treated with compound 4j at the IC50 (µM) for 48 h, then the cells were harvested and stained with Annexin V-FITC/ PI dye for 15 min in the dark at 37 °C. The samples were immediately analyzed using FACS Calibur flow cytometer (Becton and Dickinson, […]
(§3) S4.2.4. qRT-PCR measurements of p53, Bax, Bcl2 and caspase 9 for compound […]
Real-time PCR for p53, BAX, Bcl-2 and caspase 9 genes expression was done using commercial Qiagen RNA extraction/ BioRad SYBER green PCR master mix according manufacturer's instructions. Briefly, 2 µl of cDNA template, 10 pMol of each forward and reverse primer, 10 µl of 2X Master Mix and to 20 µl total reaction mixture volume by nuclease free water and then was introduced to thermal cycler […]
(1 picture or pasted object on this page, not shown here)

p53 = assay: qRT-PCR expression level of p53; conditions: MCF-7 cells
Source text: (§4) The apoptotic markers related to apoptosis were crucial in preventing cancer.[30] p53 and other apoptotic regulators function as transcription factors that can activate several target genes in response to oncogenic stress, causing cell cycle arrest, apoptosis activation, and degeneration, while also promoting DNA repairs.[31] As a result, the apoptosis-related markers work together in order to ensure that cells with mutations that promote cancer (including broken genomes) are either repaired or permanently eliminated.[32] To further comprehend the molecular process involved in the apoptotic efficacy of the acrylamide–PABA analogs, the expression levels of p53, Bax, Bcl-2 and caspase 9 were evaluated. […] This was carried out in contrast to a negative control group. […] This was accompanied by a notable drop in the level of Bcl-2 (0.29-fold). […]
as §3
(§5) Real-time PCR for p53, BAX, Bcl-2 and caspase 9 genes expression was done using commercial Qiagen RNA extraction/ BioRad SYBER green PCR master mix according manufacturer's instructions. […]
(§6) Relative quantification of target genes was run on Rotor-Gene 6000 Series Software

Bax = assay: qRT-PCR expression level of Bax; conditions: MCF-7 cells
Source text: as §4, §3, §5, §6

Bcl-2 = assay: qRT-PCR expression level of Bcl-2; conditions: MCF-7 cells
Source text: as §4, §3, §5, §6

caspase 9 = assay: qRT-PCR expression level of caspase 9; conditions: MCF-7 cells
Source text: as §4, §3, §5, §6

MCF-7 cells [5] = assay: Cell cycle analysis (PI, flow cytometry); conditions: 4j at the IC50, 48 h
Source text: In cancer mass development, the disruption of the cell cycle can be an important event. Cellular cycle progression has two primary checkpoints: G1/S before DNA replication and G2/M before mitosis.[33] A p53-responsive gene such as p21^wafi regulates the G1/S checkpoint and mediates cell cycle arrest.[34] Since the cytotoxic activity of the synthesized analogs against MCF-7 cells was induced by the enhanced apoptotic levels, we examined whether these analogs further induced cell cycle arrest. […] As can been seen in Fig. 5, the cellular distribution at each stage is depicted in the histogram of the cellular cycle caused by the acrylamide–PABA hybrid 4j. […]
instrument (Thermo Scientific, USA). The cycling parameters for the PCR amplification were achieved by initial denaturation at 95 °C for 3 minutes followed by 40 cycles of 94 °C for 15 seconds and annealing/extension step at 60 °C for 1 min.
Relative quantification of target genes was run on Rotor-Gene 6000 Series Software […]
Table 1: The primer sequences for Real Time PCR assay
S4.2.5. Cell cycle analysis of compound 4j
Cell cycle analysis in MCF-7 cells was investigated using fluorescent Annexin V-FITC/ PI detection kit (BioVision EZCellTM Cell Cycle Analysis Kit Catalog #K920) by flow cytometry assay. MCF-7 cells at a density of 2 × 10^5 per well were harvested and washed twice in PBS. After that, the cells were incubated at 37 °C and 5% CO2.
The medium was incubated with the tested compound 4j at the IC50 (µM) for 48 h, washed twice in PBS, fixed with 70% ethanol, rinsed again with PBS. Afterward, medium was stained with DNA fluorochrome PI for 15 min at 37 °C. The samples were immediately analyzed using Facs Calibur flow cytometer (Becton and Dickinson, Heidelberg, Germany).
S4.3. Molecular modeling study
Molecular docking simulations were conducted using AutoDock Vina to investigate ligand interactions with the tubulin complex. The three-dimensional (3D) structure of the tubulin heterodimer was obtained from the Protein Data Bank (PDB ID: 1SA0), with chain B of the colchicine-bound complex selected as the docking target. […]

## COc1cc(C(=O)N/C(=C\c2ccc(F)cc2)C(=O)NNC(=O)c2ccc(N)cc2)cc(OC)c1OC [4a, (Z)-N-(3-(2-(4-Aminobenzoyl)hydrazineyl)-1-(4-fluorophenyl)-3-oxoprop-1-en-2-yl)-3,4,5-trimethoxybenzamide]
[1]; Homo sapiens, MCF7, MTT
  IC50: 2.99 ± 0.1 µM
[2]
  IC50: 4.87 ± 0.13 µM
[3]
  IC50: 19.8 ± 0.62 µM
β-tubulin
  percentage inhibition of β-tubulin polymerization: 78.19%

## COc1cc(/C=C(\NC(=O)c2cc(OC)c(OC)c(OC)c2)C(=O)NNC(=O)c2ccc(N)cc2)cc(OC)c1OC [4i, (Z)-N-(3-(2-(4-Aminobenzoyl)hydrazineyl)-3-oxo-1-(3,4,5-trimethoxyphenyl)prop-1-en-2-yl)-3,4,5-trimethoxybenzamide]
[1]; Homo sapiens, MCF7, MTT
  IC50: 4.51 ± 0.15 µM

## COc1cc(C(=O)N/C(=C\c2ccc([N+](=O)[O-])cc2)C(=O)NNC(=O)c2ccc(N)cc2)cc(OC)c1OC [4c, (Z)-N-(3-(2-(4-Aminobenzoyl)hydrazineyl)-1-(4-nitrophenyl)-3-oxoprop-1-en-2-yl)-3,4,5-trimethoxybenzamide]
[1]; Homo sapiens, MCF7, MTT
  IC50: > 30 µM
[1]; MTT
  IC50: 39.7 ± 1.34 µM

## COc1cc(C(=O)N/C(=C\c2cc(Br)c(O)c(Br)c2)C(=O)NNC(=O)c2ccc(N)cc2)cc(OC)c1OC [4h, (Z)-N-(3-(2-(4-Aminobenzoyl)hydrazineyl)-1-(3,5-dibromo-4-hydroxyphenyl)3-oxoprop-1-en-2-yl)-3,4,5-trimethoxybenzamide]
[1]; Homo sapiens, MCF7, MTT
  IC50: 19.9 ± 0.67 µM

## COc1cc(C(=O)N/C(=C\c2ccc(N(C)C)cc2)C(=O)NNC(=O)c2ccc(N)cc2)cc(OC)c1OC [4f, (Z)-N-(3-(2-(4-Aminobenzoyl)hydrazineyl)-1-(4-(dimethylamino)phenyl)-3-oxoprop-1-en-2-yl)-3,4,5-trimethoxybenzamide]
[1]; Homo sapiens, MCF7, MTT
  IC50: 27.2 ± 0.92 µM

## COc1cc(C(=O)N/C(=C\c2ccco2)C(=O)NNC(=O)c2ccc(N)cc2)cc(OC)c1OC [4j, (Z)-N-(3-(2-(4-Aminobenzoyl)hydrazineyl)-1-(furan-2-yl)-3-oxoprop-1-en-2-yl)-3,4,5-trimethoxybenzamide]
[1]; Homo sapiens, MCF7, MTT
  IC50: 1.83 ± 0.06 µM
[1]; MCF-7 cells, relative to Col
  fold more potent than the reference drug Col (MCF-7 IC50): 1.9 fold
[2]
  IC50: 2.14 ± 0.09 µM
[3]
  IC50: 23.2 ± 1.06 µM
β-tubulin
  percentage inhibition of β-tubulin polymerization: 81.51%
MCF-7 cells [4]
  early apoptosis: 22.07%
  late apoptosis: 7.56%
  necrosis: 3.19%
p53
  expression level of p53 compared to negative controls: 5.14 fold
Bax
  expression level of Bax compared to negative controls: 8.36 fold
Bcl-2
  level of Bcl-2 compared to negative controls: 0.29 fold
Caspase 9
  expression level of caspase 9 compared to negative controls: 9.89 fold
MCF-7 cells [5]; negative control 29.51%
  cell population at S phase: 18.83%
MCF-7 cells [5]; negative control 61.08%
  cell population at G1 phase: 46.99%
MCF-7 cells [5]; untreated control 9.41%
  cell population at G2/M phase: 34.18%

## COc1ccc(/C=C(\NC(=O)c2cc(OC)c(OC)c(OC)c2)C(=O)NNC(=O)c2ccc(N)cc2)cc1OC [4g, (Z)-N-(3-(2-(4-Aminobenzoyl)hydrazineyl)-1-(3,4-dimethoxyphenyl)-3-oxoprop-1-en-2-yl)-3,4,5-trimethoxybenzamide]
[1]; Homo sapiens, MCF7, MTT
  IC50: 17.1 ± 0.58 µM

## COc1cc(C(=O)N/C(=C\c2ccc(Cl)cc2)C(=O)NNC(=O)c2ccc(N)cc2)cc(OC)c1OC [4b, (Z)-N-(3-(2-(4-Aminobenzoyl)hydrazineyl)-1-(4-chlorophenyl)-3-oxoprop-1-en-2-yl)-3,4,5-trimethoxybenzamide]
[1]; Homo sapiens, MCF7, MTT
  IC50: 25.3 ± 0.86 µM
